Measured values taken from patent US8415393B2, “Anti-bacterial drug targeting of genome maintenance interfaces” (Wisconsin Alumni Research Foundation, priority 2007, dated 2013).
Where a SMILES comes first, the peptide text is derived from it. Where no end group is shown, it is not given here.

Key:
[1] = target: Topoisomerase III (TopoIII)/C-terminal tail of E. coli SSB (Escherichia coli, UniProt P14294); assay: Topoisomerase III peptide binding (fluorescence anisotropy); settings: 100 μM final concentration, 1% DMSO
Sequence of Topoisomerase III (TopoIII)/C-terminal tail of E. coli SSB (P14294 whole entry): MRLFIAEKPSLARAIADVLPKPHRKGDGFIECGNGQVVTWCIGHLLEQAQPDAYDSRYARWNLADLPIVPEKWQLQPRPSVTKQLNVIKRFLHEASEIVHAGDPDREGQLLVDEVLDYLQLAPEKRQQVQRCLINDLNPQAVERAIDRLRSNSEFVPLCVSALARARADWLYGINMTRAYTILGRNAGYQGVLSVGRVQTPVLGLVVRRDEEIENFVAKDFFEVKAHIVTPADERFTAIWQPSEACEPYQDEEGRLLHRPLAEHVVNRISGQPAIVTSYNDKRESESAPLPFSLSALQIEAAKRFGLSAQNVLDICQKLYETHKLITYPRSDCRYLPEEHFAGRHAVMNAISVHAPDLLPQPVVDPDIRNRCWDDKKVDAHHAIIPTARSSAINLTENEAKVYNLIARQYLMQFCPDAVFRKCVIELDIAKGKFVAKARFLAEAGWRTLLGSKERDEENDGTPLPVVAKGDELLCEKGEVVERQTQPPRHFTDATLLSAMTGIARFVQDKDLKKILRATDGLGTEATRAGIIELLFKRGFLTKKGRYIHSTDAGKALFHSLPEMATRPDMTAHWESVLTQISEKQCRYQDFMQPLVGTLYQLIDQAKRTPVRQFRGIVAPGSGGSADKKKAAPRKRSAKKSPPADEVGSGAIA
Experimental: TopoIII was titrated into 10 nM fluorescent peptide, as described above for the ExoI binding assays. The buffer conditions for this binding assay were: 300 mM NaCl, 20 mM Tris pH 8.0, 10% Glycerol, 1 mM BME (Beta-Mercaptoethanol), and 1% DMSO. Concentrations of TopoIII used are given on the graph in FIG. 24. Changes in anisotropy upon binding were read using PanVera Beacon 2000 FP.
Either unlabeled peptide or various compounds were then added to a final concentration of 100 μM. These compounds and unlabeled peptide were dissolved in DMSO and their addition brought the final concentration of DMSO to 1%.

RecQ = RecQ (Escherichia coli, UniProt P15043); settings: read-out: Kd, app; SSB-Ct peptide binding by RecQ; cited from earlier work
Sequence of RecQ (P15043 whole entry): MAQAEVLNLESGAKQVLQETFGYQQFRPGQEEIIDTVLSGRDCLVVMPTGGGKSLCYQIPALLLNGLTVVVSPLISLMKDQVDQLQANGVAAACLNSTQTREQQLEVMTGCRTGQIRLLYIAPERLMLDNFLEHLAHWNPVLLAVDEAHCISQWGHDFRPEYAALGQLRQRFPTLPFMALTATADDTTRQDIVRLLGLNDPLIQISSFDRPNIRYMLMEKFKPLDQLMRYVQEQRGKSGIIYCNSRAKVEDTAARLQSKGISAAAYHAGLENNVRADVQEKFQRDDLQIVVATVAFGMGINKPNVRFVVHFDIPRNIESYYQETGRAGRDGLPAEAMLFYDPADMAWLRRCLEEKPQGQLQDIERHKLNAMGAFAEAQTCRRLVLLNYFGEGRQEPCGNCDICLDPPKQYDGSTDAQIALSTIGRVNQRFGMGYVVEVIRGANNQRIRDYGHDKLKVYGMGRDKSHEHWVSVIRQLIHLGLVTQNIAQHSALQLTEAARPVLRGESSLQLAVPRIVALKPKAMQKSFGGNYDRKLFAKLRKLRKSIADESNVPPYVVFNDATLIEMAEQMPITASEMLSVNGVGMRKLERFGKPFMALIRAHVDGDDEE

PriA = PriA (Escherichia coli, UniProt P17888); settings: read-out: Kd, app; SSB-Ct peptide binding by PriA; cited from earlier work
Sequence of PriA (P17888 whole entry): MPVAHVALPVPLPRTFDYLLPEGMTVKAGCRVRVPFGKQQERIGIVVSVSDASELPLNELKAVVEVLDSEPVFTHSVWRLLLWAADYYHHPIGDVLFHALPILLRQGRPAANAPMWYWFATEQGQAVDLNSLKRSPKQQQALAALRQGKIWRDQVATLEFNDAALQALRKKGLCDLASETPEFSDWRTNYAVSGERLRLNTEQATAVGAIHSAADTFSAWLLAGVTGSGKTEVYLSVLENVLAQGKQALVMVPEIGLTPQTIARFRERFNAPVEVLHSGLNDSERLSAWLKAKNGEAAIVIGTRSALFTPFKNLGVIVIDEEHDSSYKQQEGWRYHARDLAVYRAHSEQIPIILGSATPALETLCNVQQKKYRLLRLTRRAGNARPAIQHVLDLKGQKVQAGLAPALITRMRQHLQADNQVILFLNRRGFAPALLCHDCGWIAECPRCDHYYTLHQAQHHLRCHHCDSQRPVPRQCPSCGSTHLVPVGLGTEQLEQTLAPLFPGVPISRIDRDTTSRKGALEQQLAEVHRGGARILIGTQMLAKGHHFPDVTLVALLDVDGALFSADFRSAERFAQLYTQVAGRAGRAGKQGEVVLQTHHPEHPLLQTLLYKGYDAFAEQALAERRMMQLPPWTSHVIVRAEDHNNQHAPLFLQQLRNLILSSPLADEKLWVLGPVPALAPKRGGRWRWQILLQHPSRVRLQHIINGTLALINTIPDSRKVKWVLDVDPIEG

ExoI nuclease activity = settings: radiolabeled ssDNA substrate
[2] = target: T1, Exonuclease I/SSB-Ct complex (Escherichia coli, UniProt P04995); assay: Fluorescence polarization competition: inhibition of fluorescein-SSB C-terminal peptide binding to Exonuclease I (HTS and Ki determination); settings: FIG. 7, unlabeled peptide competition
T1 sequence (P04995 whole entry, looked up): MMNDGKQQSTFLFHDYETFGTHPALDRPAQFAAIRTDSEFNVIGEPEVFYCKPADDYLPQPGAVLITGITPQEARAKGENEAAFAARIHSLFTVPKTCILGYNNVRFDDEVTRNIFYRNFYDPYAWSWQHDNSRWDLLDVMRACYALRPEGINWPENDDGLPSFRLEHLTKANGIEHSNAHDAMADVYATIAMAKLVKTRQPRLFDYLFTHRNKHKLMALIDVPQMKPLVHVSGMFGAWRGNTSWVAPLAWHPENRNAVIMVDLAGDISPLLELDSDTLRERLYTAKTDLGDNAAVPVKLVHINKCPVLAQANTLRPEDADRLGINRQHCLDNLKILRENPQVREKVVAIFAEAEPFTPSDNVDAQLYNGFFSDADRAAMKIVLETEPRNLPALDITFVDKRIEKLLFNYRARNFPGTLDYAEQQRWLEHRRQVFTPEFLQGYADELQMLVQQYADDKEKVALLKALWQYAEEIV
Experimental: Peptide binding assays were performed in solution, using the peptides from above, and Exonuclease I, in the absence or presence of various compounds. Different amounts of Exonuclease I (ExoI) were used in the peptide binding assays. […] Fluorescence polarization (FP) was measured at 25° C. in triplicate; the average FP value was plotted with standard deviation of the mean shown as error.
Concentrated Exonuclease I was dialyzed overnight into 2 liters dilution buffer (DB) (20 mM Tris pH 8.0 HCl, 100 mM NaCl, 1 mM MgCl2, and 1 mM Beta-Mercaptoethanol). […] After sitting at room temperature for 5 min, a liquid handling system was used to aliquot this solution into 384 well plates providing 30 microliters/well. One microliter of 1 mM compound was then added. The screened compounds were obtained from the ChemBridge DIVERSet library (ChemBridge Corporation, San Diego, Calif.), from the Maybridge HitFinder library (Thermo Fisher Scientific, Waltham, Mass.), from the ChemDiv library (Chemical Diversity Labs, San Diego, Calif.), or from the Known Bioactive Library—KBA01.
The FP (fluorescence polarization) values for each well were read using a (plate reader) 5 minutes after compound addition.
Increasing amounts of compound were titrated into peptide protein mixture until FP values were lowered to values given by only fluorescently labeled peptide alone. Ki values were determined using the Ki calculator for fluorescence-based competitive binding assays of Prof. Shaomeng Wang, University of Michigan (Nikolovska-Coleska et al., 2004, Anal. Biochem. 332: 261-273).

ExoI = target: T2, ExoI (Escherichia coli, UniProt P04995); assay type: binding; settings: FIG. 26A
T2 construct: made in house

E. coli Exonuclease I = target: T3, E. coli Exonuclease I (Escherichia coli, UniProt P04995 1-475); assay: fluorescence polarization competition: unlabeled peptide titrated into 1 uM ExoI with 10 nM fluorescein-labeled SSB C-terminal peptide
T3 construct: also called ExoI; Exol
T3 sequence: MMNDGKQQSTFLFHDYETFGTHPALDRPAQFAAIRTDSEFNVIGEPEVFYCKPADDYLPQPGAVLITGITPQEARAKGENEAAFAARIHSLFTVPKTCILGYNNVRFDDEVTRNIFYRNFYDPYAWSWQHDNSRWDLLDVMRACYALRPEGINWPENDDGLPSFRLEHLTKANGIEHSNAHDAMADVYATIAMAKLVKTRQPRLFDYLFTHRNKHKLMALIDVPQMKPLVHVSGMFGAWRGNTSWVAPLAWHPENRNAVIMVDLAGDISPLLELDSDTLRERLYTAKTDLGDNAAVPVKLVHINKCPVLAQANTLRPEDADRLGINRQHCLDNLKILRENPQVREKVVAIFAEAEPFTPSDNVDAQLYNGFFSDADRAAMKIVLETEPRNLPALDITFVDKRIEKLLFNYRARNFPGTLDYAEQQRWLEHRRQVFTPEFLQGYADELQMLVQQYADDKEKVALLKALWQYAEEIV

CC[C@H](C)[C@H](NC(=O)[C@H](CC(=O)O)NC(=O)[C@H](CC(=O)O)NC(=O)[C@H](CC(=O)O)NC(=O)[C@H](Cc1ccccc1)NC(=O)[C@H](CC(=O)O)NC(=O)[C@H](CCSC)NC(=O)[C@@H](N)Cc1c[nH]c2ccccc12)C(=O)N1CCC[C@H]1C(=O)N[C@@H](Cc1ccccc1)C(=O)O [WT peptide] (H-WMDFDDDIPF-OH; N-terminus assumed)
inhibition of fluorescent peptide binding to TopoIII (anisotropy) [1]: did not bring the anisotropy values down to the baseline | Kd (RecQ): 6000 nM | Kd (PriA): 2000 nM | SSB stimulation of ExoI nuclease activity (ExoI nuclease activity): no apparent effect

DDDIPF: unlabeled SSB C-terminal peptide with three residues (MDF) missing from the N-terminus [reference compound]
amount needed to titrate away the fluorescent peptide, relative to full-length peptide [2]: ten-fold more

WDFMDDPFID [F-mixed]
ExoI binding to control peptides relative to F-SSB-Ct (ExoI): minimal

B1: WT peptide (WMDFDDDIPF, without a fluorescent moiety) (peptide)
peptide: WMDFDDDIPF
notes: also called unlabeled peptide; SSB-Ct peptide
Ki (E. coli Exonuclease I): 53 nM
